Assay: Evaluation of stability in liver microsome
Conditions: mouse liver microsome 0.25 mg/mL, 1 μM test compound, 37° C. for 30 minutes

| Structure (SMILES) | Remaining (%) |
| --- | --- |
| COCc1ccc(NC(=O)c2c(C#Cc3cncn3C)n(C3(C)CC3)c3ncnc(N)c23)cc1 [Example 93, 4-amino-N-(4-(methoxymethyl)phenyl)-6-((1-methyl-1H-imidazol-5-yl)ethynyl)-7-(1-methylcyclopropyl)-7H-pyrrolo[2,3-d]pyrimidine-5-carboxamide] | 53 |
| COCc1ccc(NC(=O)c2c(C#Cc3ccc4c(c3)NCCO4)n(C3(C)CC3)c3ncnc(N)c23)cc1 [Example 158, 4-amino-6-((3,4-dihydro-2H-benzo[b][1,4]oxazin-6-yl)ethynyl)-N-(4-(methoxymethyl)phenyl)-7-(1-methylcyclopropyl)-7H-pyrrolo[2,3-d]pyrimidine-5-carboxamide] | 85 |
| COCc1ccc(NC(=O)c2c(C#CC(O)C3CC3)n(C3(C)CC3)c3ncnc(N)c23)cc1 (centres unmarked) [Example 104, 4-amino-6-(3-cyclopropyl-3-hydroxyprop-1-yn-1-yl)-N-(4-(methoxymethyl)phenyl)-7-(1-methylcyclopropyl)-7H-pyrrolo[2,3-d]pyrimidine-5-carboxamide] | 52 |
| COCc1ccc(NC(=O)c2c(OC[C@@H]3CCCO3)n(C3(C)CC3)c3ncnc(N)c23)cc1 [Example 97, (S)-4-amino-N-(4-(methoxymethyl)phenyl)-7-(1-methylcyclopropyl)-6-((tetrahydrofuran-2-yl)methoxy)-7H-pyrrolo[2,3-d] pyrimidine-5-carboxamide] | 70 |
| COCc1ccc(NC(=O)c2c(C#CCN3CCOCC3)n(C3(C)CC3)c3ncnc(N)c23)cc1F [Example 206, 4-amino-N-(3-fluoro-4-(methoxymethyl)phenyl)-7-(1-methylcyclopropyl)-6-(3-morpholinoprop-1-yn-1-yl)-7H-pyrrolo[2,3-d]pyrimidine-5-carboxamide] | 77 |
| COCc1ccc(NC(=O)c2c(OCC3CCCC3)n(C3(C)CC3)c3ncnc(N)c23)cc1 [Example 140, 4-amino-6-(cyclopentylmethoxy)-N-(4-(methoxymethyl)phenyl)-7-(1-methylcyclopropyl)-7H-pyrrolo[2,3-d]pyrimidine-5-carboxamide] | 52 |
| COCc1ccc(NC(=O)c2c(-c3cccnc3)n(C3(C)CC3)c3ncnc(N)c23)cc1 [Example 61, 4-amino-N-(4-(methoxymethyl)phenyl)-7-(1-methylcyclopropyl)-6-(pyridin-3-yl)-7H-pyrrolo[2,3-d]pyrimidine-5-carboxamide] | 81 |

Other lines, results leading:

| Remaining (%) | Structure (SMILES) |
| --- | --- |
| 84 | COCc1ccc(NC(=O)c2c(C#Cc3cccc(F)c3)n(C3(C)CC3)c3ncnc(N)c23)cc1 [Example 130, 4-amino-6-((3-fluorophenyl)ethynyl)-N-(4-(methoxymethyl)phenyl)-7-(1-methylcyclopropyl)-7H-pyrrolo[2,3-d]pyrimidine-5-carboxamide] |
| 67 | COCc1ccc(NC(=O)c2c(C#Cc3cnn(C)c3)n(C3(C)CC3)c3ncnc(N)c23)cc1 [Example 90, 4-amino-N-[4-(methoxymethyl)phenyl]-6-((1-methyl-1H-pyrazol-4-yl)ethynyl)-7-(1-methylcyclopropyl)-7H-pyrrolo[2,3-d]pyrimidine-5-carboxamide] |
| 70 | COCc1ccc(NC(=O)c2c(C#Cc3cncc(C#N)c3)n(C3(C)CC3)c3ncnc(N)c23)cc1 [Example 195, 4-amino-6-((5-cyanopyridin-3-yl)ethynyl)-N-(4-(methoxymethyl)phenyl)-7-(1-methylcyclopropyl)-7H-pyrrolo[2,3-d]pyrimidine-5-carboxamide] |
| 53 | COCc1ccc(NC(=O)c2c(C#Cc3cncnc3)n(C3(C)CC3)c3ncnc(N)c23)cc1 [Example 196, 4-amino-N-(4-(methoxymethyl)phenyl)-7-(1-methylcyclopropyl)-6-(pyrimidin-5-ylethynyl)-7H-pyrrolo[2,3-d]pyrimidine-5-carboxamide] |

From patent US10155768B2, “Fused pyrimidine compound or salt thereof” (TAIHO PHARMACEUTICAL CO., LTD., priority 2016, dated 2018)
